Data taken from PubChem BioAssay (NCI).
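Abbreviation: GI50, concentration required for 50% inhibition of growth. The concentration for full growth arrest is given as TGI.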

Key:
Assay in all cases: NCI tumour cell line growth inhibition, 384-well format
786-0 renal = system: 786-0 renal
A498 renal = system: A498 renal
A549 NSCLC = system: A549 NSCLC
ACHN renal = system: ACHN renal
BT-549 breast = system: BT-549 breast
CAKI-1 renal = system: CAKI-1 renal
CCRF-CEM leukemia = system: CCRF-CEM leukemia
COLO 205 colon = system: COLO 205 colon
DU-145 prostate = system: DU-145 prostate
EKVX NSCLC = system: EKVX NSCLC
HCC-2998 colon = system: HCC-2998 colon
HCT-15 colon = system: HCT-15 colon
HL-60(TB) leukemia = system: HL-60(TB) leukemia
HOP-62 NSCLC = system: HOP-62 NSCLC
HOP-92 NSCLC = system: HOP-92 NSCLC
HS 578T breast = system: HS 578T breast
HT29 colon = system: HT29 colon
IGROV1 ovarian = system: IGROV1 ovarian
KM12 colon = system: KM12 colon
M14 melanoma = system: M14 melanoma
MALME-3M melanoma = system: MALME-3M melanoma
MCF7 breast = system: MCF7 breast
MDA-MB-231 breast = system: MDA-MB-231 breast
MDA-MB-435 melanoma = system: MDA-MB-435 melanoma
MDA-MB-468 breast = system: MDA-MB-468 breast
MOLT-4 leukemia = system: MOLT-4 leukemia
NCI-H226 lung = system: NCI-H226 lung
NCI-H23 lung = system: NCI-H23 lung
NCI-H322M lung = system: NCI-H322M lung
NCI-H460 NSCLC = system: NCI-H460 NSCLC
NCI-H522 lung = system: NCI-H522 lung
NCI/ADR-RES ovarian = system: NCI/ADR-RES ovarian
OVCAR-3 ovarian = system: OVCAR-3 ovarian
OVCAR-4 ovarian = system: OVCAR-4 ovarian
OVCAR-5 ovarian = system: OVCAR-5 ovarian
OVCAR-8 ovarian = system: OVCAR-8 ovarian
PC-3 prostate = system: PC-3 prostate
RPMI-8226 leukemia = system: RPMI-8226 leukemia
RXF 393 renal = system: RXF 393 renal
SF-268 CNS = system: SF-268 CNS
SF-295 CNS = system: SF-295 CNS
SF-539 CNS = system: SF-539 CNS
SK-MEL-2 melanoma = system: SK-MEL-2 melanoma
SK-MEL-28 melanoma = system: SK-MEL-28 melanoma
SK-MEL-5 melanoma = system: SK-MEL-5 melanoma
SK-OV-3 ovarian = system: SK-OV-3 ovarian
SN12C renal = system: SN12C renal
SNB-19 CNS = system: SNB-19 CNS
SNB-75 CNS = system: SNB-75 CNS
SR leukemia = system: SR leukemia
SW-620 colon = system: SW-620 colon
T-47D breast = system: T-47D breast
TK-10 renal = system: TK-10 renal
U251 glioblastoma = system: U251 glioblastoma
UACC-257 melanoma = system: UACC-257 melanoma
UACC-62 melanoma = system: UACC-62 melanoma

Q: Which results are given for `O=P(O)(O)C(O)(Cn1ccnc1)P(=O)(O)O`?
A: GI50 (786-0 renal): > 100 µM; TGI (786-0 renal): > 100 µM; GI50 (A498 renal): > 100 µM; TGI (A498 renal): > 100 µM; GI50 (A549 NSCLC): > 100 µM; TGI (A549 NSCLC): > 100 µM; GI50 (ACHN renal): > 100 µM; TGI (ACHN renal): > 100 µM; GI50 (BT-549 breast): > 100 µM; TGI (BT-549 breast): > 100 µM; GI50 (CAKI-1 renal): > 100 µM; TGI (CAKI-1 renal): > 100 µM; GI50 (CCRF-CEM leukemia): > 100 µM; TGI (CCRF-CEM leukemia): > 100 µM; GI50 (COLO 205 colon): > 100 µM; TGI (COLO 205 colon): > 100 µM; GI50 (DU-145 prostate): > 100 µM; TGI (DU-145 prostate): > 100 µM; GI50 (EKVX NSCLC): > 100 µM; TGI (EKVX NSCLC): > 100 µM; GI50 (HCC-2998 colon): > 100 µM; TGI (HCC-2998 colon): > 100 µM; GI50 (HCT-15 colon): > 100 µM; TGI (HCT-15 colon): > 100 µM; GI50 (HL-60(TB) leukemia): > 100 µM; TGI (HL-60(TB) leukemia): > 100 µM; GI50 (HOP-62 NSCLC): > 100 µM; TGI (HOP-62 NSCLC): > 100 µM; GI50 (HOP-92 NSCLC): > 100 µM; TGI (HOP-92 NSCLC): > 100 µM; GI50 (HS 578T breast): > 100 µM; TGI (HS 578T breast): > 100 µM; GI50 (HT29 colon): > 100 µM; TGI (HT29 colon): > 100 µM; GI50 (IGROV1 ovarian): > 100 µM; TGI (IGROV1 ovarian): > 100 µM; GI50 (KM12 colon): > 100 µM; TGI (KM12 colon): > 100 µM; GI50 (M14 melanoma): > 100 µM; TGI (M14 melanoma): > 100 µM; GI50 (MALME-3M melanoma): > 100 µM; TGI (MALME-3M melanoma): > 100 µM; GI50 (MCF7 breast): > 100 µM; TGI (MCF7 breast): > 100 µM; GI50 (MDA-MB-231 breast): > 100 µM; TGI (MDA-MB-231 breast): > 100 µM; GI50 (MDA-MB-435 melanoma): > 100 µM; TGI (MDA-MB-435 melanoma): > 100 µM; GI50 (MDA-MB-468 breast): > 100 µM; TGI (MDA-MB-468 breast): > 100 µM; GI50 (MOLT-4 leukemia): > 100 µM; TGI (MOLT-4 leukemia): > 100 µM; GI50 (NCI-H226 lung): > 100 µM; TGI (NCI-H226 lung): > 100 µM; GI50 (NCI-H23 lung): > 100 µM; TGI (NCI-H23 lung): > 100 µM; GI50 (NCI-H322M lung): > 100 µM; TGI (NCI-H322M lung): > 100 µM; GI50 (NCI-H460 NSCLC): > 100 µM; TGI (NCI-H460 NSCLC): > 100 µM; GI50 (NCI-H522 lung): > 100 µM; TGI (NCI-H522 lung): > 100 µM; GI50 (NCI/ADR-RES ovarian): > 100 µM; TGI (NCI/ADR-RES ovarian): > 100 µM; GI50 (OVCAR-3 ovarian): > 100 µM; TGI (OVCAR-3 ovarian): > 100 µM; GI50 (OVCAR-4 ovarian): > 100 µM; TGI (OVCAR-4 ovarian): > 100 µM; GI50 (OVCAR-5 ovarian): > 100 µM; TGI (OVCAR-5 ovarian): > 100 µM; GI50 (OVCAR-8 ovarian): > 100 µM; TGI (OVCAR-8 ovarian): > 100 µM; GI50 (PC-3 prostate): > 100 µM; TGI (PC-3 prostate): > 100 µM; GI50 (RPMI-8226 leukemia): > 100 µM; TGI (RPMI-8226 leukemia): > 100 µM; GI50 (RXF 393 renal): > 100 µM; TGI (RXF 393 renal): > 100 µM; GI50 (SF-268 CNS): > 100 µM; TGI (SF-268 CNS): > 100 µM; GI50 (SF-295 CNS): > 100 µM; TGI (SF-295 CNS): > 100 µM; GI50 (SF-539 CNS): > 100 µM; TGI (SF-539 CNS): > 100 µM; GI50 (SK-MEL-2 melanoma): > 100 µM; TGI (SK-MEL-2 melanoma): > 100 µM; GI50 (SK-MEL-28 melanoma): > 100 µM; TGI (SK-MEL-28 melanoma): > 100 µM; GI50 (SK-MEL-5 melanoma): > 100 µM; TGI (SK-MEL-5 melanoma): > 100 µM; GI50 (SK-OV-3 ovarian): > 100 µM; TGI (SK-OV-3 ovarian): > 100 µM; GI50 (SN12C renal): > 100 µM; TGI (SN12C renal): > 100 µM; GI50 (SNB-19 CNS): > 100 µM; TGI (SNB-19 CNS): > 100 µM; GI50 (SNB-75 CNS): > 100 µM; TGI (SNB-75 CNS): > 100 µM; GI50 (SR leukemia): > 100 µM; TGI (SR leukemia): > 100 µM; GI50 (SW-620 colon): > 100 µM; TGI (SW-620 colon): > 100 µM; GI50 (T-47D breast): > 100 µM; TGI (T-47D breast): > 100 µM; GI50 (TK-10 renal): > 100 µM; TGI (TK-10 renal): > 100 µM; GI50 (U251 glioblastoma): > 100 µM; TGI (U251 glioblastoma): > 100 µM; GI50 (UACC-257 melanoma): > 100 µM; TGI (UACC-257 melanoma): > 100 µM; GI50 (UACC-62 melanoma): > 100 µM; TGI (UACC-62 melanoma): > 100 µM
